{"source": "patent US7709242B2", "about": "“L-tyrosine producing bacterium and a method for producing L-tyrosine” (Ajinomoto Co., Inc., priority 2004, dated 2010)", "key": {"[1]": {"molecular_target": "T1, PDH containing the 254/269 mutations (mutant 6, A254G/E269Y) (Escherichia coli, UniProt P07023, A254G/E269Y)", "T1 construct": "amplify a full length fragment of the tyrA gene which has mutations introduced; made in house; host or cells: Escherichia coli W3110 ΔtyrR,tyrA, plasmid pSTV28 (SmaI site); crude enzyme solution", "T1 sequence (P07023 whole entry A254G/E269Y, the tested form may be a part)": "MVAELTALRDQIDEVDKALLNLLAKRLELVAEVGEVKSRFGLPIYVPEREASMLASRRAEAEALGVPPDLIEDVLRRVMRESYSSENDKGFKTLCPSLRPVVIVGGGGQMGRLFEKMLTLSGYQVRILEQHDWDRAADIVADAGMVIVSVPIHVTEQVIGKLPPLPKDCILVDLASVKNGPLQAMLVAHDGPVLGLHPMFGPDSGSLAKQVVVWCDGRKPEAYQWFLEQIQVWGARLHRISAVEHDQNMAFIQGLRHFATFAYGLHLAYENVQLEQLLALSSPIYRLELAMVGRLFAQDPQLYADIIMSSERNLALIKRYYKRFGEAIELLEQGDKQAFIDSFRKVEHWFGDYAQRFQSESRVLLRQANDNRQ", "assay": "PDH activity in crude enzyme solution at tyrosine concentrations, 254/269 mutant", "type": "biochemical", "details": "in the presence of 800 μM tyrosine; strain harboring PDH with 254/269 mutations", "procedure": "(§1) A strain containing mutant 7 (257/265), a strain containing mutant 6 (254/269), both shown in Table 3, and a strain containing the T260I mutation shown in Table 2 were cultured at 37° C. for 15 hours in LB medium, and after the culture, the resulting culture was centrifuged to collect bacterial cells. Then, after the bacterial cells were washed twice with 50 mM Tris-HCl (pH 7.5) and suspended in 50 mM Tris-HCl (pH 7.5) containing 20% glycerol on ice, a crude enzyme solution was prepared by repeating 30 second-ultrasonication 80 times. PDH activity was measured according to the method described in Biochemistry. 1990 Nov. 6; 29(44): 10245-54. That is, a reaction was carried out at 30° C. for 10 minutes in 50 mM Tris-HCl (pH 7.5) containing 0.25 mM prephenate, 1 mM EDTA, 1 mM DTT, and 2 mM NAD^+, and NADH was measured at an absorption wavelength of 340 nm. A protein assay was carried out by the Bradford method. […] However, the PDH activity of the strain harboring the PDH with the 257/265 mutation could not be measured even though the L-tyrosine yield was high."}, "[2]": {"molecular_target": "T2, PDH of W3110 ΔtyrR,tyrA/pSTVtyrA-1 strain (tyrA(mut), P100S/T260I) (Escherichia coli, UniProt P07023, P100S/T260I)", "T2 construct": "The resulting mutated fragment was then ligated to pSTV28; made in house; host or cells: Escherichia coli W3110 ΔtyrR,tyrA (endogenous tyrA disrupted), plasmid pSTV28; crude enzyme solution", "T2 sequence (P07023 whole entry P100S/T260I, the tested form may be a part)": "as the sequence (P07023 whole entry A254G/E269Y, the tested form may be a part) above, with P100S, G254A, T260I, Y269E counted along it", "assay": "PDH activity in crude enzyme solution at L-tyrosine concentrations, pSTVtyrA-1 strain", "type": "biochemical", "details": "in the presence of 800 μM L-tyrosine", "procedure": "(§2) W3110 ΔtyrR,tyrA/pSTVtyrA-1, -2, -5, -10, and -24 strains were cultured at 37° C. for 15 hours in a LB medium, respectively and each culture solution was centrifuged to collect bacterial cells. Next, after the bacterial cells were washed twice with 50 mM Tris-HCl (pH 7.5) and suspended in 50 mM Tris-HCl (pH 7.5) containing 20% glycerol on ice, a crude enzyme solution was prepared by repeating 30 second-ultrasonication 80 times. Then, the PDH activity was measured according to the method described in Biochemistry. 1990 Nov. 6; 29(44): 10245-54. That is, the enzyme reaction was performed at 30° C. for 10 minutes in 50 mM Tris-HCl (pH 7.5) containing 0.25 mM prephenate, 1 mM EDTA, 1 mM DTT, and 2 mM NAD, and the generated NADH was measured at an absorption wavelength of 340 nm. A protein assay was carried out by the Bradford method. […] Hereinafter, this tyrA gene inserted into pSTVtyrA-1 is referred to as tyrA(mut).\nThe nucleotide sequence of the tyrA(mut) gene was determined according to a standard method. In this mutant, proline at position 100 and threonine at position 260 were replaced by serine and isoleucine, respectively. […] The obtained strains were cultured and L-tyrosine production was evaluated. […]"}, "[3]": {"molecular_target": "T3, wild-type PDH (prephenate dehydrogenase) (Escherichia coli, UniProt P07023)", "T3 construct": "made in house; host or cells: Escherichia coli (crude enzyme solution of sonicated cells)", "assay": "PDH activity in crude enzyme solution at L-tyrosine concentrations, wild-type PDH", "type": "biochemical", "details": "in the presence of 100 μM L-tyrosine; strain carrying wild-type PDH", "excerpt": "Such mutant PDH can be obtained by introducing amino acid substitutions into wild-type PDHs and selecting a PDH which is not subject to feedback inhibition by L-tyrosine due to the amino acid substitution-introduced PDHs. Specifically, nucleotide substitutions causing amino acid substitutions are introduced into a DNA encoding PDH (e.g., SEQ ID NO: 1) by the use of, for example, site-directed mutagenesis using PCR or the like, and an Escherichia bacterium, preferably an Escherichia bacterium in which a wild-type PDH gene is disrupted is transformed with the mutated DNA. The PDH activity of the bacterium is then measured in the presence and absence of L-tyrosine, and a strain in which PDH is resistant to feedback inhibition by L-tyrosine is selected. PDH activity can be measured according to the method described in Biochemistry. 1990 Nov. 6; 29(44): 10245-54.\nW3110 ΔtyrR,tyrA/pSTVtyrA-1, -2, -5, -10, and -24 strains were cultured at 37° C. for 15 hours in a LB medium, respectively and each culture solution was centrifuged to collect bacterial cells. […] Then, the PDH activity was measured according to the method described in Biochemistry. […] That is, the enzyme reaction was performed at 30° C. for 10 minutes in 50 mM Tris-HCl (pH 7.5) containing 0.25 mM prephenate, 1 mM EDTA, 1 mM DTT, and 2 mM NAD, and the generated NADH was measured at an absorption wavelength of 340 nm. […]"}, "[4]": {"system": "PDH of strains carrying pSTVtyrA-2, -5, -10, and -24", "assay": "PDH activity in crude enzyme solution at L-tyrosine concentrations, pSTVtyrA-2, -5, -10, -24 strains", "type": "biochemical, Escherichia coli", "details": "in the presence of 100 μM L-tyrosine", "procedure": "as §2"}, "[5]": {"molecular_target": "T4, PDH containing the T260I mutation (Escherichia coli, UniProt P07023, T260I)", "T4 construct": "EcoRI-CpoI fragment containing no mutation excised from pSTVtyrA(W) was connected to the vector fragment of EcoRI-CpoI-digested pSTVtyrA(mut); made in house; host or cells: Escherichia coli W3110 ΔtyrR,tyrA, plasmid pSTVtyrA(T260I); crude enzyme solution", "T4 sequence (P07023 whole entry T260I, the tested form may be a part)": "as the sequence (P07023 whole entry A254G/E269Y, the tested form may be a part) above, with G254A, T260I, Y269E counted along it", "assay": "PDH activity in crude enzyme solution at tyrosine concentrations, T260I mutant", "type": "biochemical", "details": "in the presence of 800 μM tyrosine; strain harboring PDH with T260I", "procedure": "as §1"}, "[6]": {"molecular_target": "PDH (encoded by the tyrA gene) (Escherichia coli, UniProt P07023)", "sequence (P07023 whole entry)": "as the sequence (P07023 whole entry A254G/E269Y, the tested form may be a part) above, with G254A, Y269E counted along it", "details": "Biochemistry. 1985 Feb. 26; 24(5): 1116; cited from earlier work"}}}
{"smiles": "N[C@@H](Cc1ccc(O)cc1)C(=O)O", "note": "[L-tyrosine]", "values": [{"measurement": "inhibition of PDH activity", "setting": "[1]", "result": "almost no inhibition"}, {"measurement": "inhibition of PDH activity", "setting": "[2]", "result": "almost no inhibition"}, {"measurement": "inhibition of PDH activity", "setting": "[3]", "result": "strongly inhibited"}, {"measurement": "inhibition of PDH activity", "setting": "[4]", "result": "strongly inhibited"}, {"measurement": "inhibition of PDH activity", "setting": "[5]", "result": "almost no inhibition"}, {"measurement": "concentration of L-tyrosine at which PDH is inhibited (as low as)", "setting": "[6]", "result": 300, "unit": "µM"}]}
